Results taken from article PMC3402633 (2012).

Target: tubulin (αβ-tubulin heterodimer)
Experiment: competition with [3H]colchicine binding
Set-up: species or system Bos taurus

SMILES: COC(=O)C1=CC[C@@]23CC[C@@H]([C@@](C)(/C=C/C=C(\C)C(=O)O)OC2=O)[C@@]3(OC(C)=O)CC1 [PAB, pseudolaric acid B]
- Ki: 12 to 15 µM
